Source: patent US20070048356A1, “Antimicrobial treatment of nonwoven materials for infection control” (priority 2005, published 2007)

Test system: Staphylococcus aureus (ATCC #27660)
Test: Rapid Germicidal Time Kill on treated gloves
Format: cell-based
Conditions: for log reduction of organisms: nitrile gloves, versus applied organisms estimated from latex control
Source text: In another aspect, to assess the efficacy of how rapidly the applied antimicrobial agents kill, we employed a direct contact, rapid germicidal test, developed by Kimberly-Clark Corporation. This test better simulates real world working situations in which microbes are transferred from a substrate to glove through direct contacts of short duration. Also this test permits us to assess whether contact with the surface of the glove at one position will quickly kill microbes, whereas the solution-based testing of the ASTM E 2149-01 protocol tends to provide multiple opportunities to contact and kill the microbes, which less realistic in practice.
We applied an inoculum of a known amount of microbes to the antimicrobial-treated surface of a glove. After about 3-6 minutes, we assessed the number of microbes that remained on the surface of the treated glove. […] The concentration of organisms on the surface is given at an initial Zero Time point and at 3, 5, and 30 minute points.
To test the antimicrobial efficacy of a polyhexamethylene biguanide, we treated nitrile examination gloves according to ASTM protocol 04-123409-106 “Rapid Germicidal Time Kill.” In brief, about 50 μL of an overnight culture of Staphylococcus aureus (ATCC #27660, 5×10^8CFU/mL) was applied to the glove material. After a total contact time of about 6 minutes the glove fabric was placed into a neutralizing buffer. Surviving organisms were extracted and diluted in Letheen broth. Aliquots were spread plated on Tryptic Soy Agar plates. Plates were incubated for 48 hours at 35° C. Following incubation the surviving organisms were counted and the colony forming units (CFU) were recorded. The reduction (log10) in surviving organisms from test material versus control fabric was calculated: Log10 CFU/swatch Control−Log10 CFU/swatch Test Article=Log10 Reduction.

[1] = Table 25, nitrile glove samples, Inoculum: 8.08

## Polyhexamethylene biguanide [PHMB]
Table 23, microtextured nitrile glove, total contact time about 6 minutes
  Result (Log10 Reduction, test material versus control): >4.7 log10
Table 24, latex glove samples, total contact time about 6 minutes
  Result (Log10 Reduction versus PFE control): >5.83 log10
[1]
  Result (log reduction of test glove compared to control glove): >1.85 log
  Result (log reduction of test glove compared to control glove), class: NR (No Reduction = less than 0.5 log reduction of test glove compared to control glove.)
Microtextured nitrile glove, machine applied at 0.03 g/glove
  log reduction of Staphylococcus aureus ATCC 27660: greater than four
Hand sprayed with no heat
  log reduction of organisms: greater than one
Machine sprayed under heated conditions
  log reduction of organisms: greater than 5 log
